Test results reported in ChEMBL document CHEMBL3507680, “University of Dundee, Gates Library screen for HepG2 cell viability”.

assay: Human HepG2 cell viability assay in 384 well format; format: toxicity, cell-based; design: dose 125 nL, time 70.5 hour; concentration not given beside the values; conditions: HepG2 cells, read-out: Inhibition

Row | SMILES | cytotoxicity at 70.5 h [%]
1 | O=C1CCCN1Cc1nnc(SCc2ccc3c(c2)CCC3)o1 | 9.34
2 | Cc1cccc(=O)n1CCC(=O)N1CCC2(CC1)OCCCC2O (stereo not drawn) | -3.41
3 | CC(C)(C)c1nc(CN(Cc2cccs2)CC2CCCO2)no1 (stereo not drawn) | 3.58
4 | Cc1c(C(=O)N[C@@H]2CC[C@@H](N3CCCC3)[C@@H]2O)[nH]c2ccc(F)cc12 | 6.16
5 | CCN1CCc2c(sc3c2C(=O)NC(/C=C/c2ccco2)N3)C1 (stereo not drawn) | 43.7
6 | CCOc1cccc(NC(=O)c2cc(C)on2)n1 | -5.47
7 | c1ccc(-n2cc(CN3CCCC3Cn3cccn3)nn2)cc1 (stereo not drawn) | -10.7
8 | Cc1cccc(C2CCCN(C(=O)CN3CCCC3=O)C2)c1 (stereo not drawn) | -21.9
9 | Cc1nc(CN2Cc3nccn3CC(COCC3CC3)C2)cs1 (stereo not drawn) | -0.0625
10 | COc1ccc2c(c1)OC1(CCN(Cc3ccc(C)cc3)CC1)CC2=O | 7.29
11 | CC(=O)NCC(=O)N1CCOC2(CCCN(c3ccc(C)nn3)C2)C1 (stereo not drawn) | -11.9
12 | Cc1nc(NC(=O)C2CCCN(C(N)=O)C2)sc1-c1ccccc1 (stereo not drawn) | 28.7
13 | Brc1ccc(NCc2ccc(Cn3ccnc3)cc2)nc1 | 43.7
14 | CCN(CC)c1ccc(NS(=O)(=O)c2cnn(C)c2)cn1 | -2.05
15 | Cc1occc1C(=O)N1CCOC2(CCCC2)C1 | -3.65
16 | CS(=O)(=O)Cc1cccc(C(=O)NCC2Cc3ccccc3O2)c1 (stereo not drawn) | -3.94
17 | Cc1cnc(CNc2ncc(C)c(-c3cnn(C)c3)n2)cn1 | -14.1
18 | CC(c1cccs1)N(C)C(=O)c1cc(CN(C)Cc2ccccc2)on1 (stereo not drawn) | -4.76
19 | CCc1csc(CCNC(=O)C2CC(=O)N(C(C)C)C2)n1 (stereo not drawn) | 4.82
20 | CCC(C)[C@H](NC(=O)c1cc(F)ccc1-n1cnnn1)C(=O)OC (stereo partly drawn) | -13.4
21 | OCc1cc2ccccc2nc1N1CCCCC1 | 31.2
22 | Cc1noc(-c2ccc(N(C)Cc3ccncn3)nc2)n1 | -5.88
23 | Cc1ccc2[nH]nc(C(=O)NCC3CCN(Cc4c[nH]cn4)C3)c2c1 (stereo not drawn) | -5.7

Row | SMILES | cytotoxicity at 70.5 h [%]
24 | COc1cc(N2CCCC(c3nccn3Cc3cccnc3)C2)ncn1 (stereo not drawn) | -14.5
25 | CC(=O)N1CCC2(CC1)CCN(C(=O)c1ccc(F)c(C(F)(F)F)c1)C2 | -7.91
26 | N[C@H]1CN(C(=O)c2ccc(CO)cc2)C[C@@H]1C1CC1 | 6.41
27 | Cc1cc(CNC(=O)N2CCN(c3ccc(Cl)cn3)CC2)c(C)o1 | 18.2
28 | CCC[C@H]1CN(Cc2cc(C#N)n(C)c2C)C[C@@H]1NS(=O)(=O)CC | -6.14
29 | Cc1nc(NCCc2ccc(Cl)cc2)cc(C(=O)N2CCOCC2)n1 | -7.59
30 | CS(=O)(=O)N1CCc2c(nnn2CC2CC2)C1COCC1CC1 (stereo not drawn) | -1.97
31 | O=C(NCC1CCOC1)Nc1ccc(Oc2cccc(F)c2)nc1 (stereo not drawn) | -10.7
32 | CCc1nc(CN2CCN(C(=O)COCc3ccccc3)CC2)no1 | -7.36
33 | O=C(Nc1ccnc(OC2CCOC2)c1)c1cccs1 (stereo not drawn) | -4.23
34 | Cc1cc(C2CCCN(C(=O)COc3cc(F)ccc3F)C2)n[nH]1 (stereo not drawn) | 3.52
35 | Cc1nccn1C1CCCN(C(=O)COC2CCCC2)C1 (stereo not drawn) | -4.55
36 | CNC(=O)[C@@H]1[C@@H](c2ccccc2)CN2CCN(Cc3ccccn3)C[C@H]12 | -7.27
37 | COc1cc(NC(=O)Cn2ccc3sc(C)cc3c2=O)cc(OC)c1 | -22
38 | COc1cncc(N2CCN(Cc3ccncc3Cl)CC2)n1 | -9.33
39 | CC(=O)N1CCCC2(CCN(C(=O)c3nccnc3N)CC2)C1 | 26.1
40 | CCN(Cc1ccoc1)C(=O)NC1CCN(C(=O)OC(C)(C)C)C1 (stereo not drawn) | -2.35
41 | CC(C)N(Cc1ccccc1)Cc1csc(-c2ncccn2)n1 | -10.1
42 | N#Cc1ccc(CN2CCCN(CCCn3cncn3)CC2)cc1 | 3.01
43 | CC(C)(C)SCC(=O)NCCc1csc(N2CCCC2)n1 | -6.06
44 | Cc1ccc(C2COCCN2C(=O)c2cccc(N(C)C)c2)o1 (stereo not drawn) | -7.51
45 | Clc1ccc(CN2CCN(Cn3nccc3-c3cccnc3)CC2)s1 | 6.58
46 | O=C(CCc1cc(Cl)no1)N1CCN(CCn2cncn2)CC1 | -0.942

Row | SMILES | cytotoxicity at 70.5 h [%]
47 | N#CC1(C(=O)N2C[C@H]3CC[C@@H]2CN(Cc2ccncc2)C3)CCOCC1 | -23.5
48 | Cc1n[nH]cc1CNCc1cccc(OCC(F)(F)F)c1 | -0.995
49 | CC(C)(C)c1n[nH]c(C2CN(C(=O)CCc3ccco3)CCO2)n1 (stereo not drawn) | 1.28
50 | Cc1cc(C(=O)N2CCC[C@]3(C[C@H](OCC4CC4)CO3)C2)no1 | -0.0994
51 | CCc1noc(CN2CCN(CCO)CC2)n1 | -1.62
52 | CSCCC(NC(N)=O)C(=O)Nc1ccc(-n2cccn2)nc1 (stereo not drawn) | -7.37
53 | Cc1cc(N2CCN(C(=O)CCc3scnc3C)CC2)cc(C)n1 | 21.2
54 | CC(C)C1CN(Cc2nccn2C(C)C)CCC(=O)N1CC1CC1 (stereo not drawn) | 0.0298
55 | Cc1nc(C)n(CC2CN(CCc3cccs3)CCO2)n1 (stereo not drawn) | -5.27
56 | Cn1ncc2c1CCCC2NCc1ccc(Br)s1 (stereo not drawn) | 3.28
57 | CNC(=O)[C@H]1C[C@@H]2CN(Cc3ccc(OC)cc3)C[C@H]1O2 | -4.08
58 | CC(C)c1nc(C(=O)N2CCCC(N)CC2)cs1 (stereo not drawn) | 25.2
59 | Cn1c(-c2ccccc2Cl)nc2cc(C(=O)NCCOCCO)cnc21 | -6.61
60 | O=C(N1CCCO1)[C@@]12CCO[C@@H]1CCN(Cc1ccccc1)C2 | -5
61 | O=C(NCC1CCS(=O)(=O)C1)c1ccco1 (stereo not drawn) | -8.58
62 | CCn1ccnc1CN1CCCN(C(=O)c2csc(C)n2)CC1 | -5.02
63 | Fc1cc(Oc2ccc(C(F)(F)F)cn2)cc(F)c1CN1CCCC1 | -4.12
64 | CN(Cc1cnn(-c2ccccc2)n1)CC1CCCN1c1cccnn1 (stereo not drawn) | 4.15
65 | CC(=O)N1N=C(c2ccccc2)OC1C(=O)NCCc1ccc(Cl)cc1 (stereo not drawn) | 8.17
66 | O=C(C1CCCO1)N1CCc2onc(-c3ccc(Cl)cc3)c2C1 (stereo not drawn) | 16.8
67 | Cc1ccc(F)cc1C(=O)NCc1ccc(C(=O)O)o1 | 7.02
68 | OCC(CO)Nc1cccc(C(F)(F)F)n1 | 1.04
69 | O=C(c1cnccn1)N1C[C@@H]2OCC(=O)N(CC3CCCCC3)[C@@H]2C1 | -0.096

Row | SMILES | cytotoxicity at 70.5 h [%]
70 | CC(C)c1nn(C)c(N(C)C)c1CNCc1ccccc1CN(C)C | -0.417
71 | Cn1cnc2cc(NC(=O)c3n[nH]c4c3CCC4)ccc21 | -3.46
72 | CCN(CC(=O)NC)S(=O)(=O)c1cnc2c(c1)c(C)nn2C | -14.3
73 | O=C(NCc1csc(Br)c1)N1CCC(O)CC1 | -4.25
74 | O=C(NCCc1cccc(F)c1)C1(n2cnnn2)CCCCC1 | -3.65
75 | Cc1cccc(CN2CCCC3(CCN(c4cccnc4)C3=O)C2)n1 (stereo not drawn) | -3.53
76 | COC(=O)CCC(=O)NCc1cccnc1N1CCc2ccccc2C1 | 3.31
77 | CN(Cc1ccsc1)c1nc(-c2ccccn2)nc2c1CCNCC2 | -9.47
78 | Cc1cccc(S(=O)(=O)N2CSCC2C(=O)NCC2CC2)c1 (stereo not drawn) | -2.32
79 | CCN(Cc1ccoc1)C(=O)NC1CCN(CC=C(C)C)CC1 | 6.72
80 | Cc1cc(C)cc(N2CCN(C(=O)C3CN(C)C(=O)N3)CC2=O)c1 (stereo not drawn) | -9.45
81 | Cc1nc(C2CCCN(C(=O)CCCn3cccn3)C2)sc1C (stereo not drawn) | -15.3
82 | CCOC(=O)C1CCN(c2nccc(-n3nc(C)cc3C)n2)CC1 | -3.45
83 | O=C(C1CC1)N1CC[C@H]2[C@@H]1CCC(=O)N2c1ccccc1 | -2.42
84 | CCn1nc(C)cc1C(=O)N1CCOc2cc(C)ccc21 | -7.11
85 | CC(C)CC(=O)Nc1c(-c2ccc(F)cc2)ncn1C | 9.48
86 | Cc1cccc(CN2C(=O)CC[C@H]3[C@@H]2CCN3CC(=O)N(C)C)n1 | -7.14
87 | Cc1ccc(C)c(NC(=O)c2cc(S(=O)(=O)N3CCSCC3)c[nH]2)c1 | 7.14
88 | Cc1csc(C(C)(C)NCC(=O)N2CCCC(C(F)(F)F)C2)n1 (stereo not drawn) | 8.68
89 | CN(c1ncc(S(N)(=O)=O)s1)C1CCC1 | -9.06
90 | Cc1nc(C2CCCNC2)cc(N(Cc2nccn2C)C2CC2)n1 (stereo not drawn) | 7.52
91 | CN(Cc1cccs1)C(=O)CS(=O)(=O)Cc1ccc(Cl)c(Cl)c1 | 26.3
92 | Cc1ccc(Oc2ncccc2CNC2CCOCC2)cn1 | -7.51

Row | SMILES | cytotoxicity at 70.5 h [%]
93 | CCO[C@@H]1CCN(C(=O)c2cscn2)[C@@H]1Cc1cnn(C)c1 | -10.2
94 | c1ccc(CN2C[C@H]3CCC[C@@]3(COCC3CCOCC3)C2)nc1 | 0.897
95 | CS(=O)(=O)N1CCC2(CCCN(c3ncc(F)cn3)C2)C1 (stereo not drawn) | -7.4
96 | Cc1cc(C)n(CC2CCCCN2CC(=O)NC2CCOCC2)n1 (stereo not drawn) | 18.3
97 | Cc1cc2n(n1)CC(CNC1CCN(Cc3ccncc3)CC1)CN2 (stereo not drawn) | -0.58
98 | Cc1nc(CNC(=O)c2cc(COc3ccccc3F)[nH]n2)n[nH]1 | 17.2
99 | COCCN(C)C(C(=O)O)c1cc(Cl)ccc1OC (stereo not drawn) | 7.55
100 | CS(=O)(=O)NC1CCN(C(=O)NCc2cccnc2)CC1 | 2.6
101 | COc1ncccc1NC(=O)NC1CCCN(c2ncccn2)C1 (stereo not drawn) | 1.22
102 | O=C(c1ccnc(NC2CC2)c1)N1CCCC1c1cccc(Br)c1 (stereo not drawn) | -6.56
103 | CC(C)CN1CCC2(CCN(Cc3nccs3)CC2)C1=O | 0.492
104 | COCCO[C@@H]1C[C@H]2CN(C(=O)c3ccc(C)nc3)CCN2C1 | -9.86
105 | CC(NC(=O)N1CCNC(=O)CC1)c1ccc(OC(F)F)cc1 (stereo not drawn) | -8.12
106 | Cc1ccc(CN2CCC3(CC2)C(=O)N(C)c2ccccc23)s1 | 0.079
107 | Cc1cccc(C2(CNC(=O)c3ccnc(N(C)C)c3)CCOCC2)c1 | 15.5
108 | CCOc1ccc(Cc2c(O)nc(SC)n(-c3ccccc3)c2=O)cc1 | -2.28
109 | Cn1c(CCCNC(=O)Nc2cn[nH]c2)nc2ccccc21 | -3.29
110 | COCC1CN(C(=O)c2ccoc2C)Cc2nccn2C1 (stereo not drawn) | 22.7
111 | Cc1ccccc1CS(=O)(=O)CC(=O)NCc1ccccc1F | 4.2
112 | CC(C)(NC(=O)C1CCN(C2CCCCC2)CC1)c1nnc(N)s1 | 1.76
113 | CN1CCCC1CCNC(=O)Nc1ccccc1 (stereo not drawn) | -5
